Reference: PubChem BioAssay AID2060907 (Molecular Pharmacology Branch, DTP, NCI, 2025)
Where “and” joins values, the source holds several entries; their conditions need not be identical. Identical values can stand only once.

Test system: 388556-164-R-J1-PDC complex spheroid viability
Experiment: Anticancer human tumor 388556-164-R-J1-PDC patient-derived colon adenocarcinoma cell line growth inhibition [RAS]
Conditions: for viability, T/C: stronger effect = lower value
How it was run: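 Agents were tested in combination matrices in half-log decrements from a top concentration at or near clinical Cmax (10 microM if undetermined). Targets were multi-cell spheroids of tumour lines plus HUVEC and MSC stromal cells.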

[1] = curve of first compound, second compound 0.000949 µM
[2] = curve of first compound, second compound 0.003 µM
[3] = curve of first compound, second compound 0.00949 µM
[4] = curve of first compound, second compound 0.03 µM
[5] = curve of first compound, second compound 0.0949 µM
[6] = curve of first compound, second compound 0.3 µM
[7] = second compound 0.000949 µM, first compound 0.0316 µM
[8] = second compound 0.000949 µM, first compound 0.1 µM
[9] = second compound 0.000949 µM, first compound 0.316 µM
[10] = second compound 0.000949 µM, first compound 1 µM
[11] = second compound 0.000949 µM, first compound 3.16 µM
[12] = second compound 0.000949 µM, first compound 10 µM
[13] = second compound 0.003 µM, first compound 0.0316 µM
[14] = second compound 0.003 µM, first compound 0.1 µM
[15] = second compound 0.003 µM, first compound 0.316 µM
[16] = second compound 0.003 µM, first compound 1 µM
[17] = second compound 0.003 µM, first compound 3.16 µM
[18] = second compound 0.003 µM, first compound 10 µM
[19] = second compound 0.00949 µM, first compound 0.0316 µM
[20] = second compound 0.00949 µM, first compound 0.1 µM
[21] = second compound 0.00949 µM, first compound 0.316 µM
[22] = second compound 0.00949 µM, first compound 1 µM
[23] = second compound 0.00949 µM, first compound 3.16 µM
[24] = second compound 0.00949 µM, first compound 10 µM
[25] = second compound 0.03 µM, first compound 0.0316 µM
[26] = second compound 0.03 µM, first compound 0.1 µM
[27] = second compound 0.03 µM, first compound 0.316 µM
[28] = second compound 0.03 µM, first compound 1 µM
[29] = second compound 0.03 µM, first compound 3.16 µM
[30] = second compound 0.03 µM, first compound 10 µM
[31] = second compound 0.0949 µM, first compound 0.0316 µM
[32] = second compound 0.0949 µM, first compound 0.1 µM
[33] = second compound 0.0949 µM, first compound 0.316 µM
[34] = second compound 0.0949 µM, first compound 1 µM
[35] = second compound 0.0949 µM, first compound 3.16 µM
[36] = second compound 0.0949 µM, first compound 10 µM
[37] = second compound 0.3 µM, first compound 0.0316 µM
[38] = second compound 0.3 µM, first compound 0.1 µM
[39] = second compound 0.3 µM, first compound 0.316 µM
[40] = second compound 0.3 µM, first compound 1 µM
[41] = second compound 0.3 µM, first compound 3.16 µM
[42] = second compound 0.3 µM, first compound 10 µM
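Further: spheroids exposed to compound for 7 days before readout.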
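Wherever viability, T/C is given: 100% = DMSO vehicle control luminescence.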

Structure (SMILES): CC(=O)OC12COC1CC(O)C1(C)C(=O)C(O)C3=C(C)C(OC(=O)C(O)C(NC(=O)OC(C)(C)C)c4ccccc4)CC(O)(C(OC(=O)c4ccccc4)C21)C3(C)C (stereo not given) + CCn1c(-c2cccnc2C(C)OC)c2c3cc(ccc31)N1CCOC(CC(NC(=O)C(C(C)C)N(C)C(=O)C3(F)CCN(C(=O)C#CC(C)(C)N(C)C)CC3)C(=O)N3CCCC(N3)C(=O)OCC(C)(C)C2)C1
- IC50 [1]: > 10 µM
- IC50 [2]: > 10 µM
- IC50 [3]: > 10 µM
- IC50 [4]: > 10 µM
- IC50 [5]: > 10 µM
- IC50 [6]: > 10 µM
- viability, T/C [7]: 86%
- viability, T/C [8]: 83.4%
- viability, T/C [9]: 70.5%
- viability, T/C [10]: 73.7%
- viability, T/C [11]: 80.7%
- viability, T/C [12]: 74.7%
- viability, T/C [13]: 92.2%
- viability, T/C [14]: 78.8%
- viability, T/C [15]: 79%
- viability, T/C [16]: 76%
- viability, T/C [17]: 75.1%
- viability, T/C [18]: 74.4%
- viability, T/C [19]: 86%
- viability, T/C [20]: 83.4%
- viability, T/C [21]: 76.6%
- viability, T/C [22]: 75%
- viability, T/C [23]: 79.4%
- viability, T/C [24]: 71%
- viability, T/C [25]: 95.5%
- viability, T/C [26]: 81.7%
- viability, T/C [27]: 70.7%
- viability, T/C [28]: 71.7%
- viability, T/C [29]: 79.1%
- viability, T/C [30]: 74.2%
- viability, T/C [31]: 80.7%
- viability, T/C [32]: 79.2%
- viability, T/C [33]: 81.8%
- viability, T/C [34]: 76.3%
- viability, T/C [35]: 78%
- viability, T/C [36]: 69.6%
- viability, T/C [37]: 79.7%
- viability, T/C [38]: 70.3%
- viability, T/C [39]: 71.3%
- viability, T/C [40]: 73.8%
- viability, T/C [41]: 71.4%
- viability, T/C [42]: 69%

Structure (SMILES): CC1(O)CCCC1n1c(=O)c(C(F)F)cc2cnc(NC3CCN(S(C)(=O)=O)CC3)nc21 (stereo not given)
- viability, T/C (compound 0.0316 µM): 92.6% and 106% and 83.1%
- viability, T/C (compound 0.1 µM): 100% and 93% and 103%
- viability, T/C (compound 0.316 µM): 107% and 99.9% and 99.4%
- viability, T/C (compound 1 µM): 102% and 97.4% and 98%
- viability, T/C (compound 3.16 µM): 111% and 105% (2×)
- viability, T/C (compound 10 µM): 75.2% and 57.1% and 77.8%
- IC50 (curve of compound): > 10 µM

Structure (SMILES): Cc1nc(N2CCC3(CC2)COC(C)C3N)c(CO)nc1Sc1ccnc(N)c1Cl (stereo not given) + CCn1c(-c2cccnc2C(C)OC)c2c3cc(ccc31)N1CCOC(CC(NC(=O)C(C(C)C)N(C)C(=O)C3(F)CCN(C(=O)C#CC(C)(C)N(C)C)CC3)C(=O)N3CCCC(N3)C(=O)OCC(C)(C)C2)C1
- IC50 [1]: > 10 µM
- IC50 [2]: 5.69 µM
- IC50 [3]: 4.81 µM
- IC50 [4]: 5.74 µM
- IC50 [5]: 3.95 µM
- IC50 [6]: 2.34 µM
- viability, T/C [7]: 97.1%
- viability, T/C [8]: 95.6%
- viability, T/C [9]: 77.4%
- viability, T/C [10]: 55.2%
- viability, T/C [11]: 56%
- viability, T/C [12]: 47.1%
- viability, T/C [13]: 108%
- viability, T/C [14]: 93.9%
- viability, T/C [15]: 76.7%
- viability, T/C [16]: 66.4%
- viability, T/C [17]: 56%
- viability, T/C [18]: 44.6%
- viability, T/C [19]: 91.5%
- viability, T/C [20]: 99.9%
- viability, T/C [21]: 82.9%
- viability, T/C [22]: 61.7%
- viability, T/C [23]: 57.3%
- viability, T/C [24]: 43.7%
- viability, T/C [25]: 105%
- viability, T/C [26]: 98.7%
- viability, T/C [27]: 75.6%
- viability, T/C [28]: 63.4%
- viability, T/C [29]: 56.4%
- viability, T/C [30]: 45.1%
- viability, T/C [31]: 90.1%
- viability, T/C [32]: 95%
- viability, T/C [33]: 75%
- viability, T/C [34]: 62.8%
- viability, T/C [35]: 56%
- viability, T/C [36]: 40.5%
- viability, T/C [37]: 92.5%
- viability, T/C [38]: 86.7%
- viability, T/C [39]: 65.2%
- viability, T/C [40]: 55.6%
- viability, T/C [41]: 52.4%
- viability, T/C [42]: 40.1%

Structure (SMILES): CCn1c(-c2cc(N3CCN(C)CC3)cnc2C(C)OC)c2c3cc(ccc31)-c1csc(n1)CC(NC(=O)C1CC1C)C(=O)N1CCCC(N1)C(=O)OCC(C)(C)C2 (stereo not given)
- viability, T/C (compound 0.000949 µM): 99% [middle of 8 runs]
- viability, T/C (compound 0.003 µM): 92% [middle of 8 runs]
- viability, T/C (compound 0.00949 µM): 78.5% [middle of 8 runs]
- viability, T/C (compound 0.03 µM): 62.5% [middle of 8 runs]
- viability, T/C (compound 0.0949 µM): 45.2% [middle of 8 runs]
- viability, T/C (compound 0.3 µM): 34.4% [middle of 8 runs]
- IC50 (compound alone, run of 08/26/2024): 68.6 nM [middle of 8 runs]

Structure (SMILES): CC(C)NCC(C(=O)N1CCN(c2ncnc3c2C(C)CC3O)CC1)c1ccc(Cl)cc1 (stereo not given) + CCn1c(-c2cccnc2C(C)OC)c2c3cc(ccc31)N1CCOC(CC(NC(=O)C(C(C)C)N(C)C(=O)C3(F)CCN(C(=O)C#CC(C)(C)N(C)C)CC3)C(=O)N3CCCC(N3)C(=O)OCC(C)(C)C2)C1
- IC50 [1]: > 10 µM
- IC50 [2]: > 10 µM
- IC50 [3]: > 10 µM
- IC50 [4]: > 10 µM
- IC50 [5]: > 10 µM
- IC50 [6]: > 10 µM
- viability, T/C [7]: 104%
- viability, T/C [8]: 98%
- viability, T/C [9]: 99.6%
- viability, T/C [10]: 89.8%
- viability, T/C [11]: 105%
- viability, T/C [12]: 85.4%
- viability, T/C [13]: 105%
- viability, T/C [14]: 104%
- viability, T/C [15]: 102%
- viability, T/C [16]: 99.1%
- viability, T/C [17]: 102%
- viability, T/C [18]: 81.8%
- viability, T/C [19]: 108%
- viability, T/C [20]: 102%
- viability, T/C [21]: 101%
- viability, T/C [22]: 90.7%
- viability, T/C [23]: 107%
- viability, T/C [24]: 91.3%
- viability, T/C [25]: 106%
- viability, T/C [26]: 111%
- viability, T/C [27]: 84.6%
- viability, T/C [28]: 98.4%
- viability, T/C [29]: 106%
- viability, T/C [30]: 81.5%
- viability, T/C [31]: 84.8%
- viability, T/C [32]: 101%
- viability, T/C [33]: 93.8%
- viability, T/C [34]: 99.9%
- viability, T/C [35]: 106%
- viability, T/C [36]: 79.2%
- viability, T/C [37]: 94.5%
- viability, T/C [38]: 102%
- viability, T/C [39]: 86.6%
- viability, T/C [40]: 87.8%
- viability, T/C [41]: 95.5%
- viability, T/C [42]: 72.6%
